Data as given in US20130216666A1, “CASHEW NUT SHELL LIQUID WITH IMPROVED STABILITY” (IDEMITSU KOSAN CO., LTD., priority 2010, published 2013).

Columns and labels:
[1] = Inhibition of decarboxylation reaction when organic acid chelating agent was added (HPLC); type: physicochemical; conditions: 80° C.
[2] = Inhibition of decarboxylation reaction in unheated cashew nut shell liquid formulation (silica), citric acid; type: physicochemical; conditions: 80° C.; for Anacardic Acid 15:1 Composition (%) / Anacardic Acid 15:1 concentration / Anacardic Acid 15:2 Composition (%) / Anacardic Acid 15:2 concentration / Anacardic Acid 15:3 Composition (%) / Anacardic Acid 15:3 concentration / Cardanol 15:1 concentration / Cardanol 15:2 Composition (%) / Cardanol 15:2 concentration / Cardanol 15:3 Composition (%) / Cardanol 15:3 concentration / Cardanol 15:1 Composition (%): mixed with silica; for inhibition of the decarboxylation: formulation with silica, 6 days
Text: 10 g of silica (Sipernat 22) was placed into each of beakers.

[3] = Inhibition of decarboxylation reaction in feed; conditions: 10% by weight in unheated CNSL, 80° C.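 Also: ethyl acetate extract of test feed analysed by reversed-phase C18 HPLC with absorbance detection at 280 nm, giving component composition.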
Protocol: The analysis was carried out under the conditions of a solvent composition of acetonitrile: water: acetic acid =80:20:1 (based on volume), a flow rate of 2 ml/min, a temperature of 25° C., and an absorbance of 280 nm.
Samples were taken from the beakers after 3 days and analyzed for composition by HPLC.
For HPLC analysis, soluble fractions of the test feed was extracted with ethyl acetate and then filtered and dried to concentrate it to 5 mg/ml.

[4] = 2% by weight in unheated CNSL, Day 0
[5] = 2% by weight in unheated CNSL, Day 6
[6] = 10% by weight in unheated CNSL, Day 0
[7] = 10% by weight in unheated CNSL, Day 6
[8] = silica composition 1% by weight in feed, Day 0
[9] = silica composition 1% by weight in feed, Day 3

In the case of `O=C(O)CC(O)(CC(=O)O)C(=O)O` [Citric Acid, citric acid], the “Anacardic Acid 15:1 Composition (%)” value [1, 4] is reported as 39.78%, the “Anacardic Acid 15:1 concentration” value [1, 4] is reported as 332.79 ppm and the “Anacardic Acid 15:2 Composition (%)” value [1, 4] is reported as 14.23%. For the same molecule, the “Anacardic Acid 15:2 concentration” value [1, 4] was 119.04 ppm, the “Anacardic Acid 15:3 Composition (%)” value [1, 4] was 33.01% and the “Anacardic Acid 15:3 concentration” value [1, 4] was 276.11 ppm. For the same molecule, the “Cardanol 15:1 concentration” value [1, 4] was 45.23 ppm, the “Cardanol 15:2 Composition (%)” value [1, 4] was 2.32% and the “Cardanol 15:2 concentration” value [1, 4] was 19.40 ppm. For the same molecule, the “Cardanol 15:3 Composition (%)” value [1, 4] was 5.25%, the “Cardanol 15:3 concentration” value [1, 4] was 43.93 ppm and the “Anacardic Acid 15:1 Composition (%)” value [1, 5] was 32.78%. The “Anacardic Acid 15:1 concentration” value [1, 5] was 281.46 ppm, the “Anacardic Acid 15:2 Composition (%)” value [1, 5] was 11.39% and the “Anacardic Acid 15:2 concentration” value [1, 5] was 97.81 ppm. The “Anacardic Acid 15:3 Composition (%)” value [1, 5] was 26.31%, the “Anacardic Acid 15:3 concentration” value [1, 5] was 225.94 ppm and the “Cardanol 15:1 concentration” value [1, 5] was 111.23 ppm. For the same molecule, the “Cardanol 15:2 Composition (%)” value [1, 5] was 4.84%, the “Cardanol 15:2 concentration” value [1, 5] was 41.54 ppm and the “Cardanol 15:3 Composition (%)” value [1, 5] was 11.72%. For the same molecule, the “Cardanol 15:3 concentration” value [1, 5] was 100.64 ppm, the “Anacardic Acid 15:1 Composition (%)” value [1, 6] was 39.28% and the “Anacardic Acid 15:1 concentration” value [1, 6] was 248.49 ppm. The “Anacardic Acid 15:2 Composition (%)” value [1, 6] was 14.38%, the “Anacardic Acid 15:2 concentration” value [1, 6] was 90.98 ppm and the “Anacardic Acid 15:3 Composition (%)” value [1, 6] was 33.19%. The “Anacardic Acid 15:3 concentration” value [1, 6] was 209.99 ppm, the “Cardanol 15:1 concentration” value [1, 6] was 34.38 ppm and the “Cardanol 15:2 Composition (%)” value [1, 6] was 2.45%. For the same molecule, the “Cardanol 15:2 concentration” value [1, 6] was 15.47 ppm, the “Cardanol 15:3 Composition (%)” value [1, 6] was 5.27% and the “Cardanol 15:3 concentration” value [1, 6] was 33.37 ppm. For the same molecule, the “Anacardic Acid 15:1 Composition (%)” value [1, 7] was 38.07%, the “Anacardic Acid 15:1 concentration” value [1, 7] was 273.99 ppm and the “Anacardic Acid 15:2 Composition (%)” value [1, 7] was 13.78%. For the same molecule, the “Anacardic Acid 15:2 concentration” value [1, 7] was 99.14 ppm, the “Anacardic Acid 15:3 Composition (%)” value [1, 7] was 31.48% and the “Anacardic Acid 15:3 concentration” value [1, 7] was 226.51 ppm. The “Cardanol 15:1 concentration” value [1, 7] was 49.53 ppm, the “Cardanol 15:2 Composition (%)” value [1, 7] was 3.30% and the “Cardanol 15:2 concentration” value [1, 7] was 23.72 ppm. The “Cardanol 15:3 Composition (%)” value [1, 7] was 6.49%, the “Cardanol 15:3 concentration” value [1, 7] was 46.72 ppm and the “Anacardic Acid 15:1 Composition (%)” value [2, 4] was 39.36%. The “Anacardic Acid 15:1 concentration” value [2, 4] was 161.67 ppm, the “Anacardic Acid 15:2 Composition (%)” value [2, 4] was 14.07% and the “Anacardic Acid 15:2 concentration” value [2, 4] was 57.80 ppm. For the same molecule, the “Anacardic Acid 15:3 Composition (%)” value [2, 4] was 32.64%, the “Anacardic Acid 15:3 concentration” value [2, 4] was 134.06 ppm and the “Cardanol 15:1 concentration” value [2, 4] was 23.41 ppm. The “Cardanol 15:2 Composition (%)” value [2, 4] was 2.78%, the “Cardanol 15:2 concentration” value [2, 4] was 11.43 ppm and the “Cardanol 15:3 Composition (%)” value [2, 4] was 5.44%. The “Cardanol 15:3 concentration” value [2, 4] was 22.36 ppm, the “Anacardic Acid 15:1 Composition (%)” value [2, 5] was 32.92% and the “Anacardic Acid 15:1 concentration” value [2, 5] was 121.26 ppm. The “Anacardic Acid 15:2 Composition (%)” value [2, 5] was 11.63%, the “Anacardic Acid 15:2 concentration” value [2, 5] was 42.84 ppm and the “Anacardic Acid 15:3 Composition (%)” value [2, 5] was 26.37%. The “Anacardic Acid 15:3 concentration” value [2, 5] was 97.14 ppm, the “Cardanol 15:1 Composition (%)” value [2, 5] was 12.91% and the “Cardanol 15:1 concentration” value [2, 5] was 47.56 ppm. For the same molecule, the “Cardanol 15:2 Composition (%)” value [2, 5] was 4.67%, the “Cardanol 15:2 concentration” value [2, 5] was 17.19 ppm and the “Cardanol 15:3 Composition (%)” value [2, 5] was 11.49%. For the same molecule, the “Cardanol 15:3 concentration” value [2, 5] was 42.34 ppm, the “Anacardic Acid 15:1 Composition (%)” value [2, 6] was 39.73% and the “Anacardic Acid 15:1 concentration” value [2, 6] was 151.81 ppm. For the same molecule, the “Anacardic Acid 15:2 Composition (%)” value [2, 6] was 14.05%, the “Anacardic Acid 15:2 concentration” value [2, 6] was 53.68 ppm and the “Anacardic Acid 15:3 Composition (%)” value [2, 6] was 32.47%. The “Anacardic Acid 15:3 concentration” value [2, 6] was 124.09 ppm, the “Cardanol 15:1 concentration” value [2, 6] was 21.54 ppm and the “Cardanol 15:2 Composition (%)” value [2, 6] was 2.79%. For the same molecule, the “Cardanol 15:2 concentration” value [2, 6] was 10.67 ppm, the “Cardanol 15:3 Composition (%)” value [2, 6] was 5.32% and the “Cardanol 15:3 concentration” value [2, 6] was 20.34 ppm. The “Anacardic Acid 15:1 Composition (%)” value [2, 7] was 38.12%, the “Anacardic Acid 15:1 concentration” value [2, 7] was 136.67 ppm and the “Anacardic Acid 15:2 Composition (%)” value [2, 7] was 14.58%. The “Anacardic Acid 15:2 concentration” value [2, 7] was 52.15 ppm, the “Anacardic Acid 15:3 Composition (%)” value [2, 7] was 30.40% and the “Anacardic Acid 15:3 concentration” value [2, 7] was 108.99 ppm. The “Cardanol 15:1 Composition (%)” value [2, 7] was 7.19%, the “Cardanol 15:1 concentration” value [2, 7] was 25.79 ppm and the “Cardanol 15:2 Composition (%)” value [2, 7] was 3.19%. The “Cardanol 15:2 concentration” value [2, 7] was 11.43 ppm, the “Cardanol 15:3 Composition (%)” value [2, 7] was 6.55% and the “Cardanol 15:3 concentration” value [2, 7] was 23.49 ppm. The “inhibition of the decarboxylation” value ([2]; 2% by weight) was “moderate inhibition”, the “inhibition of the decarboxylation” value ([2]; 10% by weight) was “significant inhibition” and the “stability of the shell liquid in the feed (progress of the decarboxylation)” value ([3]; in feed, 3 days) was “stable in the feed without progress of the decarboxylation”. For the same molecule, the “Anacardic Acid 15:1 Composition (%)” value [3, 8] was 40.28%, the “Anacardic Acid 15:1 concentration” value [3, 8] was 363.92 ppm and the “Anacardic Acid 15:2 Composition (%)” value [3, 8] was 13.76%. For the same molecule, the “Anacardic Acid 15:2 concentration” value [3, 8] was 124.28 ppm, the “Anacardic Acid 15:3 Composition (%)” value [3, 8] was 33.11% and the “Anacardic Acid 15:3 concentration” value [3, 8] was 299.13 ppm. For the same molecule, the “Cardanol 15:1 concentration” value [3, 8] was 48.69 ppm, the “Cardanol 15:2 Composition (%)” value [3, 8] was 2.31% and the “Cardanol 15:2 concentration” value [3, 8] was 20.83 ppm. For the same molecule, the “Cardanol 15:3 Composition (%)” value [3, 8] was 5.15%, the “Cardanol 15:3 concentration” value [3, 8] was 46.52 ppm and the “Anacardic Acid 15:1 Composition (%)” value [3, 9] was 38.54%. For the same molecule, the “Anacardic Acid 15:1 concentration” value [3, 9] was 309.33 ppm, the “Anacardic Acid 15:2 Composition (%)” value [3, 9] was 13.16% and the “Anacardic Acid 15:2 concentration” value [3, 9] was 105.64 ppm. For the same molecule, the “Anacardic Acid 15:3 Composition (%)” value [3, 9] was 31.68%, the “Anacardic Acid 15:3 concentration” value [3, 9] was 254.26 ppm and the “Cardanol 15:1 Composition (%)” value [3, 9] was 6.98%. The “Cardanol 15:1 concentration” value [3, 9] was 56.00 ppm, the “Cardanol 15:2 Composition (%)” value [3, 9] was 2.98% and the “Cardanol 15:2 concentration” value [3, 9] was 23.95 ppm. The “Cardanol 15:3 Composition (%)” value [3, 9] was 6.67% and the “Cardanol 15:3 concentration” value [3, 9] was 53.50 ppm.
